Source: paper PMC7235175, “Analysis of Pigment-Dispersing Factor Neuropeptides and Their Receptor in a Velvet Worm” (Frontiers in Endocrinology, 2020)
“Also recorded” adds a separate entry of the source.

System: PDF receptor Er-PDFR of E. rowelli
Assay: BRET assay: cAMP response (Epac-L sensor) of HEK293T cells transfected with Er-PDFR
Format: cell-based, Euperipatoides rowelli
Details: for activation of Er-PDFR (cAMP response) / potency of PDF-II relative to PDF-I as activating ligand: HEK293T, Epac-L BRET, n = 8; for activation of Er-PDFR (cAMP response): Rm-MIP7 as control (unrelated peptide); for potency of PDF-II relative to PDF-I as activating ligand: comparison of activation by the two peptides
Protocol: HEK293T cells were seeded on 96-well Nunc plates (Thermo Fisher Scientific, Waltham, MA, USA) at a density of 2 ×10^4 cells/well and cultured in DMEM high glucose (Sigma-Aldrich Chemie GmbH, Munich, Germany) supplemented with 10% fetal bovine serum and 5% CO2 at 37°C. After 24 h, cells were transfected using polyethyleneimine (25 kDa PEI, linear; Polysciences Europe GmbH, Hirschberg an der Bergstrasse, Germany) with GFP2-hEpac1E157-P881-Rluc8 [Epac-L; modified from ([83]–[85])] and pcDNA3.1-ErPDFR-3K10 in a 1:1 ratio (100 ng total DNA/well). Cells were washed with HBSS (Thermo Fisher Scientific) 2 days after transfection and stimulated with different concentrations of synthetic PDF peptides (10^−11 to 10^−5 M final concentration) together with the substrate coelenterazine 400A (“DeepBlueC”; BIOTREND Chemikalien GmbH, Cologne, Germany) at a final concentration of 5 μM in a total volume of 50 μL HBSS. Control experiments were conducted with cells expressing Epac-L alone, stimulation without PDF peptides, stimulation using an unrelated peptide (myoinhibitory peptide 7 from the cockroach Rhyparobia maderae), and stimulation with forskolin (50 μM final concentration; Sigma-Aldrich Chemie GmbH) + IBMX (100 μM final concentration; Sigma-Aldrich Chemie GmbH), respectively. The raw luminescence was measured immediately after stimulation at wavelengths of 410 ± 80 nm for the donor and 515 ± 30 nm for the acceptor in eight biological replicates for each tested PDF peptide concentration (n = 8) using a POLARstar Omega microplate reader (BMG Labtech, Cary, NC, USA). Their ratios [emission (410 nm)/emission (515 nm)] were box plotted as relative luminescence against the respective PDF concentration in dose response curves.

| Substance | activation threshold (minimum concentration required for PDFR stimulation) (HEK293T cells co-transfected with Epac-L and pcDNA3.1-ErPDFR-3K10 (1:1), peptide 10^−11 to 10^−5 M, coelenterazine 400A 5 μM in HBSS, emission 410/515 nm read immediately after stimulation, n = 8 biological replicates) | activation of Er-PDFR (cAMP response) (peptide 10^−11 to 10^−5 M) | potency of PDF-II relative to PDF-I as activating ligand | potency of PDF-II relative to PDF-I as activating ligand (listed as PDF-II) |
| --- | --- | --- | --- | --- |
| CNAELINSLLGLPKMMNDA-NH2 [Er-PDF-I, HPLC-purified synthetic pigment-dispersing factor peptide I of Euperipatoides rowelli] | 10^−6 M | activated by both PDF peptides of E. rowelli, Er-PDF-I and Er-PDF-II, in a dose-dependent manner; also recorded: activated by Er-PDF-I and Er-PDF-II in a distinct and dose-dependent manner | – | – |
| CNAELINSLLNLPQKLQEA-NH2 [Er-PDF-II, HPLC-purified synthetic pigment-dispersing factor peptide II of Euperipatoides rowelli] | – | activated by both PDF peptides of E. rowelli, Er-PDF-I and Er-PDF-II, in a dose-dependent manner; also recorded: activated by Er-PDF-I and Er-PDF-II in a distinct and dose-dependent manner | one order of magnitude more potent than Er-PDF-I | tenfold higher potency than PDF-I |
